Patent US9233971B2, “Lipomacrocycles and uses thereof” (priority 2010, dated 2016)

Key:
SSB mRNA in liver [1] = assay: In vivo gene knockdown, lipid particle siRNA formulation (Example 4), SSB siRNA; conditions: lipid particles, dose 3.2 mg/kg intravenously, CD1 mice, liver harvested three days later, real-time RT-PCR, GAPDH reference
Protocol: Lipid Particle formulations were made by first mixed siRNA in an aqueous solution with DOTMA in organic solvent to produce a water-insoluble precipitate. After isolating and drying the precipitate, the precipitate was dissolved in chloroform and further mixed with other lipids as following: Each lipid particle formulation was consisting of 1 part DOTMA+siRNA complex/5 parts any lipomacrocycle compound (Table 1)/1.5 parts N 6-tetrakis (3-aminopropyl)-1,3-propanediamine cholesteryl carbamate/2.2 parts 1,2-dilinoleoyl-sn-glycero-3-phosphoethanolamine/10.08 parts cholesterol PEG-660/4.32 parts cholesterol PEG-660/0.6 parts cholesterol (weight/weight). All the components were dissolved in chloroform and mixed together. Then, the mixtures were dried overnight in Speedvac. The dried formulations were hydrated by adding in certain amount of 5% dextrose water before dosing to animals intravenously.
(§1) All procedures used in animal studies conducted were approved by the Institutional Animal Care and Use Committee (IACUC) and were consistent with local, state and federal regulations as applicable. Mice, rats, and rabbits received siRNA formulations intravenously at dose volume of 0.2 ml, 1 ml, or 10 ml, respectively. Animals were sacrificed 2 to 7 days later. Tissues were harvested and mRNA was isolated with Turbocapture kit (Qiagen) for analyzing change of gene expression with real-time RT-PCR method (SensiMix SYBR One-Step Kit, Bioline). Serum was harvested for analyzing blood chemistry.
(§2) CD1 mice were dosed with lipid particle (Table 1) or liposome (Table 2) siRNA formulation intravenousely and the different tissues were harvested three days later. The gene expression was analyzed with real-time RT-PCR method (for liver, GAPDH as reference gene; for lung and bone marrow, GAPDG and β-actin as reference genes).

SSB mRNA in liver [2] = assay: In vivo gene knockdown, liposomal siRNA formulation (Example 3), SSB siRNA; set-up: species or system CD1 mice; conditions: liposomal formulation, SSB siRNA, dose 3.2 mg/kg intravenously, CD1 mice, liver harvested three days later, real-time RT-PCR, GAPDH reference
Protocol: (§3) Each liposome formulation was made by mixing lipids of each lipomacrocycle compound (Table 1) combined with DSPC, DMG-PEG 2K, and cholesterol at the weight ratio of 3.85:0.42:0.21:0.79 in ethanol and siRNA in water. Then 5% dextrose water was added in each formulation before dosing to mice.
as §1, §2

APOB mRNA in liver = assay: In vivo gene knockdown, liposomal siRNA formulation (Example 3), APOB siRNA; conditions: dose 3 mg/kg intravenously, CD1 mice, liver harvested three days later, real-time RT-PCR, GAPDH reference
Protocol: as §3, §1, §2

Structure (SMILES)	Targeted mRNA remain in liver (SSB mRNA in liver [1])	Targeted mRNA remain in liver (SSB mRNA in liver [2])	Targeted mRNA remain in liver (APOB mRNA in liver)
CCCCCCCCCCCCCCOCC(O)CN(CCCN(CCCN(CCCN(CC(O)COCCCCCCCCCCCCCC)CC(O)COCCCCCCCCCCCCCC)CCCN(CC(O)COCCCCCCCCCCCCCC)CC(O)COCCCCCCCCCCCCCC)CCCN(CC(O)COCCCCCCCCCCCCCC)CC(O)COCCCCCCCCCCCCCC)CC(O)COCCCCCCCCCCCCCC (centres unmarked) [Compound T3C1]	0.18	0.13	
CCCCCCCCCCCCOCC(O)CN(CCCN(CCCCN(CCCN(CC(O)COCCCCCCCCCCCC)CC(O)COCCCCCCCCCCCC)CCCN(CC(O)COCCCCCCCCCCCC)CC(O)COCCCCCCCCCCCC)CCCN(CC(O)COCCCCCCCCCCCC)CC(O)COCCCCCCCCCCCC)CC(O)COCCCCCCCCCCCC (centres unmarked) [Compound T4C10]			0.82
CC(C)(C)c1ccc(C(=O)OCC(O)CN(CCCN(CCCCN(CCCN(CC(O)COC(=O)c2ccc(C(C)(C)C)cc2)CC(O)COC(=O)c2ccc(C(C)(C)C)cc2)CCCN(CC(O)COC(=O)c2ccc(C(C)(C)C)cc2)CC(O)COC(=O)c2ccc(C(C)(C)C)cc2)CCCN(CC(O)COC(=O)c2ccc(C(C)(C)C)cc2)CC(O)COC(=O)c2ccc(C(C)(C)C)cc2)CC(O)COC(=O)c2ccc(C(C)(C)C)cc2)cc1 (centres unmarked) [Compound T4C11]			1.07
CC(C)(C)C(O)(CCc1ccc(Cl)cc1)CN(CCCN(CCCCN(CCCN(CC(O)(CCc1ccc(Cl)cc1)C(C)(C)C)CC(O)(CCc1ccc(Cl)cc1)C(C)(C)C)CCCN(CC(O)(CCc1ccc(Cl)cc1)C(C)(C)C)CC(O)(CCc1ccc(Cl)cc1)C(C)(C)C)CCCN(CC(O)(CCc1ccc(Cl)cc1)C(C)(C)C)CC(O)(CCc1ccc(Cl)cc1)C(C)(C)C)CC(O)(CCc1ccc(Cl)cc1)C(C)(C)C (centres unmarked) [Compound T4C18]			1.56
